Several values for one entry are separate records, joined by “and”; a condition that tells them apart may be missing. Identical values can stand only once. Like-named read-outs stand apart in the source and are kept apart here. Marks after values point to notes of the source that are not given here.
Legend:
MxA = format: cell-based, human; details: 24 hrs
VSV-GFP [1] = format: cell-based, Vesicular Stomatitis Virus
Nup98 = experiment: cells; format: cell-based; details: Homo sapiens, HeLa, 24 hrs, read-out: Nup98 protein level, % of control
VSV-GFP [2] = experiment: microbe, parasite or virus in culture; format: cell-based, Vesicular Stomatitis Virus
Rae1 = experiment: cells; format: cell-based; details: Homo sapiens, HeLa, 24 hrs, read-out: Rae1 protein level, % of control
Flotillin-1 = experiment: cells; format: cell-based, human

Compound: CC[C@H](C)C(=O)O[C@H]1C[C@@H](C)C=C2C=C[C@H](C)[C@H](CC[C@@H]3C[C@@H](O)CC(=O)O3)[C@H]21 [lovastatin]
- Cell survival (HeLa cells): ~30%
- Toxicity to HeLa cells (HeLa cells): highly toxic

Compound: CC[C@H](C)C(=O)O[C@H]1C[C@H](O)C=C2C=C[C@H](C)[C@H](CC[C@@H](O)C[C@@H](O)CC(=O)O)[C@H]21 [pravastatin]
- Cell death rate, slope d (HeLa cells): −1.20 % cells/μM Prava
- Cell death rate, slope c (HeLa cells; human): −1.78 % cells/μM Prava

Compound: CCC(C)(C)C(=O)O[C@H]1C[C@@H](C)C=C2C=C[C@H](C)[C@H](CC[C@@H]3C[C@@H](O)CC(=O)O3)[C@H]21 [simvastatin]
- Cell death rate (Δ% cell death per ΔμM), slope b (HeLa cells): −2.61 % cells/μM Sim
- Slope a (m), relative trend of cell survival, FIG. 18 (HeLa cells; 0.125-2 μM 8 hrs): −6.54
- Slope b (m), relative trend of cell survival, FIG. 18 (HeLa cells; 0.125-2 μM 8 hrs): −10.46
- Cell death rate (Δ% cell death per ΔμM), slope a (HeLa cells; human): −1.63 % cells/μM Sim
- MxA protein levels (MxA; 0.125 μM): ~400%
- MxA protein levels (MxA; 0.5 μM): 650%
- MxA protein levels (MxA; 2.0 μM): 150%
- Pretreatment time required to inhibit VSV protein levels (VSV-GFP [1]): ≥ 4 h
- activity at 0.125 µM (Nup98; 0.125 μM): 180%
- activity at 0.5 µM (Nup98; 0.5 μM): 240%
- activity at 2 µM (Nup98; 2.0 μM): 260%
- Decrease of pfu in log-units (VSV-GFP [2]): 2 log-units
- Fold lower pfu than control VSV-infected cells (VSV-GFP [2]): 660 fold
- Pfu values (viral titer of supernatant) (VSV-GFP [2]): 1.80×10^4 (+/−3×10^3) pfu/ml
- IC50 (VSV-GFP [2]; Vesicular stomatitis virus, HeLa, read-out: Concentration needed for reduction of pfu values to half of control (IC50)): 278 nM
- activity at 0.125 µM (Rae1; 0.125 μM): 196%
- activity at 0.5 µM (Rae1; 0.5 μM): 310%
- activity at 2 µM (Rae1; 2.0 μM): 390%
- Flotillin-1 levels, % of control (Flotillin-1; 0.125 µM): ~160% and ~100%
- Flotillin-1 levels, % of control (Flotillin-1; 0.5 µM): ~90%
- activity at 0.5 µM (Flotillin-1; Homo sapiens, HeLa, read-out: Flotillin-1 levels, % of control): ~75%

Compound: Methyl-β-cyclodextrin [MβCD]
- Cell survival (HeLa cells): ~20%
- Toxicity to HeLa cells (HeLa cells): highly toxic
- VSV G protein level, % of VSV control infection (VSV-GFP [1]): 150% and 195% and 247% and 182% and 210%
- VSV N/P protein level, % of VSV control infection (VSV-GFP [1]): 153% and 220% and 150% and 275% and 147% and 162%
- Attenuation of viral titers by pretreatment (VSV-GFP [2]): attenuated
- Fold decrease of VSV titers (VSV-GFP [2]): 160 fold
- VSV titer after pretreatment (VSV-GFP [2]): 5.25×10^4 (+/1−5.5×10^3) pfu/ml
